Experimental findings from patent US11896650B2, “Enhancing chemotherapy in medulloblastoma and glioblastoma with high basal p53 levels” (GEORGETOWN UNIVERSITY, priority 2018, dated 2024) are described below.

Type in all cases: cell-based
One experiment relates to p110. The experiment can be described thus: Cell viability of cells overexpressing p110 with added mTOR/AKT signaling inhibitor. The procedure: FIGS. 3A, 3B, 3C, 3D, and 3E show the effects of over expression of p110-caax on D556 and D283 cell survival. D556 cells were transformed with p110 or control plasmid, and Western blots for p110 and β-actin were run (FIG. 3A). The effects of overexpression of p110 on cell viability were determined via Trypan blue assay on D283 cells (FIG. 3B, upper right panel) and D556 cells (FIG. 3C, lower left panel) showing Trypan blue assay results; lower middle panel showing). Cell viability for D556 cells was also measured by propidium iodide (PI) staining and measured by flow cytometry (FIG. 3D, lower middle panel)). Reversal of chemosensitivity induced by p110 overexpression is shown when an inhibitor of mTOR/AKT signaling (Rad001/Everolimus) is added (FIG. 3E)
D556 cells were transformed with p110 or control plasmid and Western blots for p110 and β-actin were run (FIG. 3A). The effects of overexpression of p110 on cell viability were determined via Trypan blue assay on D283 cells (FIG. 3B) and D556 cells (FIG. 3C). Cell viability for D556 cells was also measured by propidium iodide (PI) staining and measured by flow cytometry (FIG. 3D).

Another experiment concerns pmTOR in D556 cells. In words: Western blot for pmTOR in D556 cells infected with p53 shRNA or control pLKO lentivirus. The procedure:
D556 cells were infected with either p53 shRNA or control pLKO lentivirus and Western blotting was performed to show the effect of p53 inhibition on pmTOR.
A general note: A western blot detects proteins with antibodies after separation by electrophoresis.

In experiment [1] the test system is D556 cells. In words: Cell survival of D556 cells after p53 knockdown and drug treatment. The settings on record: 18 hours treatment. The procedure: (§1) Comparative sensitivities of D556 cells treated with cisplatin (FIG. 6B) or vincristine (FIG. 6C) were tested at the concentrations shown and in the presence or absence of thymosin β-4 (5 nM). * p<0.05, N>3 separate experiments.
(§2) For chemosensitivity testing, the effects of p53 knockdown on cell survival of D556 cells treated with doxorubicin (dox), vincristine (vinc) and cisplatin (csp) was further assessed.

The test system of experiment [2] is D556 cells. In words: Apoptotic cell death of D556 cells after p53 and mTOR shRNA knockdown and drug treatment (trypan blue, annexin V/PI). The following applies: p53 loss plus mTOR knockdown. The procedure:
FIGS. 2A, 2B and 2C show the effect of silencing of p53 and mTOR in D556 cells. FIG. 2A and FIG. 2B are bar graphs showing the proportion of cells undergoing apoptotic cell death as a result of infection with p53 shRNA, control pLKO, mTOR and both p53 and mTOR lentivirus in D556 cells treated for 18 hrs with DMSO, VMY (30 uM) or doxorubicin (1 uM) as assessed using Trypan blue (FIG. 2A) and annexin V and propidium iodide (PI) staining (FIG. 2B) and measured by flow cytometry. Data are shown as percent change in staining versus pLKO-control infected cells.
The proportion of cells undergoing apoptotic cell death as a result of infection with p53 shRNA, control pLKO, mTOR and both p53 and mTOR lentivirus in D556 cells treated for 18 hrs with DMSO, VMY (30 uM) or doxorubicin (1 uM) was assessed using trypan blue (FIG. 2A) and annexin V and propidium iodide (PI) staining (FIG. 2B) and measured by flow cytometry. Data were determined as the percent change in staining versus pLKO-control infected cells.

The subject of the next experiment is D283 cells. The experiment can be described thus: Cell viability of D283 cells treated with chemotherapeutic agents with or without Tβ-4 (propidium iodide staining, flow cytometry). The procedure:
(§3) FIGS. 4A, 4B, and 4C show the effects of thymosin beta-4 (Tβ-4) on D556 and D283 cell survival. For cell viability assays, D556 cells (FIG. 4A) and D283 cells (FIG. 4B) were treated with DMSO, doxorubicin, or VMY in the presence or absence of Tβ-4, and cell viability as measured using propidium iodide (PI) staining with flow cytometry. Control cells were untreated. […] GADPH expression was used as a control.
(§4) The effect of Tβ-4 was evaluated using a cell viability assay for D556 and D283 cells. D556 and D283 cells were treated with 5 nM Tβ-4 and either doxorubicin or VMY. Viability of D556 cells (FIG. 4A) and of D283 cells (FIG. 4B) was measured using propidium iodide (PI) staining with flow cytometry. A dose response curve was performed for D556 cells treated with vincristine alone or vincristine plus Tβ-4 using a cellular proliferation assay kit wst-1 (FIG. 4C).
(In flow cytometry, cells or beads pass a laser one at a time.)

Experiment [3] concerns D556 cells. In words: Cell viability of D556 cells treated with chemotherapeutic agents with or without Tβ-4 (propidium iodide staining, flow cytometry; wst-1). The procedure: as §3, §4
Experiment [4] relates to D556 cells. In words: Chemosensitivity testing of D556 cells with cisplatin or vincristine in presence or absence of Tβ-4. The following applies: Tβ-4 5 nM; p<0.05. The procedure:
as §1, §2

In experiment [5] the test system is Akt, PP2A (α and c subunit), PARP and RIP1 in D556 cells. The experiment can be described thus: Western blot of D556 cells after Tβ-4 treatment. The procedure: FIGS. 5A, 5B, 5C and 5D are Western blots showing that Tβ-4 treatment of D556 cells induces expression of Akt, PP2A (α and c subunits), PARP, and RIP1.
To further assess the mechanism of effect of Tβ-4 treatment of D556 cells, Western blot were performed.

Where [6] appears, read: with doxorubicin, vincristine, VMY-1-103.

With `CO[C@H]1C[C@@H]2CC[C@@H](C)[C@@](O)(O2)C(=O)C(=O)N2CCCC[C@H]2C(=O)O[C@H]([C@H](C)C[C@@H]2CC[C@@H](OCCO)[C@H](OC)C2)CC(=O)[C@H](C)/C=C(\C)[C@@H](O)[C@@H](OC)C(=O)[C@H](C)C[C@H](C)/C=C/C=C/C=C/1C` [Rad001/Everolimus, Everolimus], the “effect on chemosensitivity induced by p110 overexpression” value in the experiment with p110 is “reversed the chemosensitivity induced by p110”.
Consider `CC(C)[C@H](CO)Nc1nc(Nc2ccc(C(=O)NCCNS(=O)(=O)c3cccc4c(N(C)C)cccc34)c(Cl)c2)c2ncn(C(C)C)c2n1` [VMP], for which the “pmTOR level in cells infected with p53 shRNA vs control pLKO lentivirus” value with pmTOR in D556 cells is “induction of pmTOR”.
As to `N.N.[Cl][Pt][Cl]` [cisplatin], the “cell survival of p53 shRNA infected D556 cells vs control pLKO lentivirus” value (shortened to “cell survival … vs control pLKO lentivirus”) in the experiment on D556 cells [1] was “lower percentage of cell survival”.
On to `COc1cccc2c1C(=O)c1c(O)c3c(c(O)c1C2=O)C[C@@](O)(C(=O)CO)C[C@@H]3O[C@H]1C[C@H](N)[C@H](O)[C@H](C)O1` [doxorubicin], for which the “cell survival … vs control pLKO lentivirus” value in the experiment on D556 cells [1] is “lower percentage of cell survival”. Moreover, in the experiment on pmTOR in D556 cells, the “pmTOR level in cells infected with p53 shRNA vs control pLKO lentivirus” value is “induction of pmTOR”. Also, the “chemoresistance of p53-suppressed D556 cells after shRNA knockdown of mTOR” value with D556 cells [2] is on record as “restoring chemoresistance”.
Consider `CC[C@]1(O)C[C@H]2CN(CCc3c([nH]c4ccccc34)[C@@](C(=O)OC)(c3cc4c(cc3OC)N(C=O)[C@H]3[C@@](O)(C(=O)OC)[C@H](OC(C)=O)[C@]5(CC)C=CCN6CC[C@]43[C@@H]65)C2)C1` [vincristine], for which the “cell survival … vs control pLKO lentivirus” value in the experiment with D556 cells [1] was “lower percentage of cell survival”. In the experiment on D556 cells [2], the “chemoresistance of p53-suppressed D556 cells after shRNA knockdown of mTOR” value is recorded as “restoring chemoresistance”.
Regarding “Tβ-4: multifunctional regenerative peptide, sequence MSDKPDMAEIEKFDKSKLKKTETQEKNPLPSKETIEQEKQAGES (SEQ ID NO:1); PI3K activator; commercially available as RGN-352 (MSDKPDMAEIEKFDKSKLKKTETQEKNPLPSKETIEQEKQAGES; listed as Homo sapiens)”, the figures for the “Tβ-4 sensitivity of cell line” value in the experiment with D283 cells (D286 cells) and with D556 cells [3] (D556 cells) were “insensitive” and “sensitive”, respectively. Besides, in the experiment with D283 cells (setting [6]), the “protection of D283 (p53 low) cells from chemotherapeutic agents” value is given as “protects D283 (p53 low) cells from the same drugs”. The “sensitization of MB cells with high p53 levels to chemotherapeutic agents” value in the experiment on D556 cells [3] (setting [6]) is reported as “sensitizes MB cells with high p53 levels to chemotherapeutic agents”. Further, in the experiment with D556 cells [4], the “sensitivity of D556 cells to cisplatin in presence vs absence of Tβ-4” value was “significantly more sensitivity”. Besides, the “sensitivity of D556 cells to vincristine in presence vs absence of Tβ-4” value in the experiment with D556 cells [4] is “significantly more sensitivity”. In experiment [5], the “protein induction by Western blot” value was “induces Akt, PP2A (α and c subunit), PARP and RIP1”.
